Patent US7074824B2, “Pharmaceutical compositions containing beta-lapachone, or derivatives or analogs thereof, and methods of using same” (Arqule, Inc., priority 2001, dated 2006)
Read-outs that look alike come from different tables or passages of the source.

Assays:
A2780 = assay: MTS growth inhibition assay; assay type: cell-based, human; settings: Homo sapiens
Procedure: (§1) A2780 and A2780/CP (ovarian); MCF-7 (breast); HT-29 (colon); BxPC-3 (pancreas); and A549 (lung). The human tumor cell lines (purchased from ATCC, Rockville, Md.) were cultured at 37° C. […] Nova Tech, Grand Island, N.Y.) containing 10% fetal bovine serum (FBS, Nova Tech). Aliquots of cells were seeded into each well of 96-well microtiter plates at a final concentration of 10^4 cells/well and incubated for 24 h prior to exposure to test compounds. […] The MTS assay is a colorimetric assay based upon the ability of viable cells to convert MTS, a novel tetrazolium compound and electron-coupling reagent, to a colored formazan product that is soluble in cell culture medium. The cell concentration is then determined by measuring the absorbance of the formazan product at 490 nm. Growth inhibition, expressed as IC50, is calculated relative to vehicle-treated control cells.

BxPC-3 = assay: MTS growth inhibition assay; assay type: cell-based, human; settings: Homo sapiens
Procedure: as §1

A549 = assay: MTS growth inhibition assay; assay type: cell-based, human; settings: Homo sapiens
Procedure: as §1

MCF-7 = assay: MTS growth inhibition assay; assay type: cell-based, human; settings: Homo sapiens
Procedure: as §1

HT-29 = assay: MTS growth inhibition assay; assay type: cell-based, human; settings: Homo sapiens
Procedure: as §1

A2780CP = assay: MTS growth inhibition assay; assay type: cell-based, human; settings: Homo sapiens, A2780C/P
Procedure: as §1

[1] = system: RPMI 8226 multiple myeloma cells; assay type: in vivo
Procedure: Chemicals. β-lapachone was synthesized and dissolved in 40% hydroxypropyl β-cyclodextrin at a concentration of 10 mg/mL and kept at room temperature in a dark container. Hydroxypropyl β-cyclodextrin was dissolved in distilled water at a concentration of 10 mg/mL and kept at room temperature. […]®, a basement membrane matrix was purchased from Becton Dickinson Labware (BD Biosciences, Two Oak Park Drive, Bedford, Mass.) and was dissolved in Dulbecco's modified Eagle's medium with 50 μg/mL Gentamycin and kept frozen at −20° C. […]® is extracted from the Engelbreth-Holm-Swarm mouse tumor, a tumor rich in extracellular matrix proteins. The major matrix components are laminin, collagen IV, entactin, and heparan sulfate proteoglycan (perlecan); the matrix also contains growth factors, matrix metalloproteinases (MMPs [collagenases]), and plasminogen activators, without any inhibitors of metalloproteinases (TIMPs). The […] matrix is a solution at 4° C. and gels at room temperature to form a three-dimensional reconstituted basement membrane. This model system closely mimics the structure, composition, physical properties, and functional characteristics of the basement membrane in vivo and provides a physiologically relevant environment for studies of cell morphology, biochemical function, migration or invasion, and gene expression. The frozen […]® matrix was thawed overnight at 4° C. before use.
Cell Cultures. RPMI8226 cells (a human multiple myeloma cell line) were provided Dr. William Dalton (Lee Moffit Cancer Center, Tampa, Fla.). They were maintained by frequent passages in RPMI 1640 (Cellgro®, Mediatech Inc., Herndon, Va.) containing 10% Fetal Bovine serum (FBS) (GibcoBRL, Life Technologies, Grand Island, N.Y.) supplemented with 2×10^−3M L-Glutamine, 100 units/mL penicillin (Pen), and 100 μg/mL streptomycin (Cellgro®D, Mediatech Inc., Herndon, Va.) in 162 cm^2 cell culture flasks (Costar®, Corning Incorporated, Corning, N.Y.). The exponentially growing cell lines were CD138+, CD38+/CD45RA−, EBV negative, and pathogen free.
Mice. Forty male 6 week old Bg-Nu-Xid mice (deficient in T, B, and NK cells) were obtained from the FCRDC, Frederick, Bethesda, Md. and housed at the Redstone animal facility at DFCI. These mice have 3 separate mutations—Beige (Bg) autosomal recessive mutation associated with impaired chemotaxis and motility of macrophages & deficiency of NK cells; the nude (nu) autosomal recessive mutation associated with depletion of T cells due to thymic agenesis; and the X-linked immune defect (xid) which produces functional defects of B lymphocytes. The animals were raised in a barrier facility in cages with saw dust bedding and laminar air at 19–22° C. Rodent food and sterile drinking water were supplied ad libitum. The mice were quarantined to rule out development of any disease. One mouse died during transport, and 5 others were lost because of dehydration (n=2), probable infection (n=2) and excessive bleeding due to trauma (n=1). After 1 week, enrofloxacin (a quinolone antibiotic) was added in drinking water of all mice. All procedures involving animals were approved by and performed according to guidelines of the Institutional Animal Care and Use Committee of the Dana Farber Cancer Institute (DFCI).
Histologic Analysis. The mice were sacrificed when the tumor reached 20 mm in their largest diameter or they became moribund, as per the policy of the Animal Protocol Committee at Dana Farber Cancer Institute. […]

Compound `CC1(C)CCC2=C(O1)c1ccccc1C(=O)C2=O` [β-lapachone] has an IC50 (A2780; A2780, read-out: Growth inhibitory activity (50% effective concentration, IC50), A2780 (sensitive) ovarian, Exp 1, 4 h treatment + 24 h drug-free) of 2110 nM, an IC50 (A2780; A2780, read-out: Growth inhibitory activity (50% effective concentration, IC50), A2780 (sensitive) ovarian, Exp 2, 4 h treatment + 24 h drug-free) of 3990 nM and an IC50 (A2780; A2780, read-out: Growth inhibitory activity (50% effective concentration, IC50), A2780 (sensitive) ovarian, Exp 3, 4 h treatment + 24 h drug-free) of 876 nM. The IC50 (A2780; A2780, read-out: Growth inhibitory activity (50% effective concentration, IC50), A2780 (sensitive) ovarian, Mean ± SE of 3 experiments) was 2320 ± 910 nM, the IC50 (BxPC-3; BXPC-3, read-out: Growth inhibitory activity (50% effective concentration, IC50), BxPC-3 pancreas, Exp 1) was 11.6 µM and the IC50 (BxPC-3; BXPC-3, read-out: Growth inhibitory activity (50% effective concentration, IC50), BxPC-3 pancreas, Exp 2) was 5.68 µM. It also gave an IC50 (BxPC-3; BXPC-3, read-out: Growth inhibitory activity (50% effective concentration, IC50), BxPC-3 pancreas, Exp 3) of 16.5 µM, an IC50 (BxPC-3; BXPC-3, read-out: Growth inhibitory activity (50% effective concentration, IC50), BxPC-3 pancreas, Mean ± SE of 3 experiments) of 11.3 ± 3.12 µM and an IC50 (A549; A549, read-out: Growth inhibitory activity (50% effective concentration, IC50), A549 lung, Exp 1) of 4.48 µM. For the same compound, the IC50 (A549; A549, read-out: Growth inhibitory activity (50% effective concentration, IC50), A549 lung, Exp 2) was 4.73 µM, the IC50 (A549; A549, read-out: Growth inhibitory activity (50% effective concentration, IC50), A549 lung, Exp 3) was 18.7 µM and the IC50 (A549; A549, read-out: Growth inhibitory activity (50% effective concentration, IC50), A549 lung, Mean ± SE of 3 experiments) was 9.3 ± 4.69 µM. For the same compound, the IC50 (MCF-7; MCF7, read-out: Growth inhibitory activity (50% effective concentration, IC50), MCF-7 breast, Exp 1) was 2370 nM, the IC50 (MCF-7; MCF7, read-out: Growth inhibitory activity (50% effective concentration, IC50), MCF-7 breast, Exp 2) was 4750 nM and the IC50 (MCF-7; MCF7, read-out: Growth inhibitory activity (50% effective concentration, IC50), MCF-7 breast, Exp 3) was 2100 nM. The IC50 (MCF-7; MCF7, read-out: Growth inhibitory activity (50% effective concentration, IC50), MCF-7 breast, Mean ± SE of 3 experiments) was 3070 ± 840 nM, the IC50 (HT-29; HT-29, read-out: Growth inhibitory activity (50% effective concentration, IC50), HT-29 colon, Exp 1) was 5.37 µM and the IC50 (HT-29; HT-29, read-out: Growth inhibitory activity (50% effective concentration, IC50), HT-29 colon, Exp 2) was 11.4 µM. It also gave an IC50 (HT-29; HT-29, read-out: Growth inhibitory activity (50% effective concentration, IC50), HT-29 colon, Exp 3) of 9.89 µM, an IC50 (HT-29; HT-29, read-out: Growth inhibitory activity (50% effective concentration, IC50), HT-29 colon, Mean ± SE of 3 experiments) of 8.89 ± 1.82 µM and an IC50 (A2780CP; read-out: Growth inhibitory activity (50% effective concentration, IC50), A2780CP (resistant) ovarian, Exp 1) of 4470 nM. For the same compound, the IC50 (A2780CP; read-out: Growth inhibitory activity (50% effective concentration, IC50), A2780CP (resistant) ovarian, Exp 2) was 1610 nM, the IC50 (A2780CP; read-out: Growth inhibitory activity (50% effective concentration, IC50), A2780CP (resistant) ovarian, Exp 3) was 1760 nM and the IC50 (A2780CP; read-out: Growth inhibitory activity (50% effective concentration, IC50), A2780CP (resistant) ovarian, Mean ± SE of 3 experiments) was 2610 ± 930 nM. The “tumor volume versus control group” value ([1]; 50 mg/kg i.p. every alternate day in 40% HPBCD, by day 11, p=0.007) was “statistically significant decrease in tumor volume”, the “survival compared to controls” value ([1]; day 5, 7, 9, 11, 13, 15 and 17, FIG. 16) was “survival was greater” and the “MM cell apoptosis in tumors (mean±SD)” value ([1]; histopathology, light microscopy, p=0.001 versus control) was 41.1%±12.7. For the same compound, the kidney histology ([1]; mouse, in vivo) was “mild tubular vacuolization” and the “microscopic toxicity on liver, heart, lung, brain, and spleen” value ([1]; mouse, in vivo) was “no microscopic evidence of any toxicity”.
